From patent US8450313B2, “2,3-diaryl- or heteroaryl-substituted 1,1,1-trifluoro-2-hydroxypropyl compounds” (Hoffmann-La Roche Inc., priority 2009, dated 2013)

Biological target: T1, full length human recombinant glucocorticoid receptor (Homo sapiens, UniProt P04150)
T1 construct: It contains some partially purified full length human recombinant glucocorticoid receptor; purchased Panvera/Invitrogen PV4302
T1 sequence (P04150 1-777): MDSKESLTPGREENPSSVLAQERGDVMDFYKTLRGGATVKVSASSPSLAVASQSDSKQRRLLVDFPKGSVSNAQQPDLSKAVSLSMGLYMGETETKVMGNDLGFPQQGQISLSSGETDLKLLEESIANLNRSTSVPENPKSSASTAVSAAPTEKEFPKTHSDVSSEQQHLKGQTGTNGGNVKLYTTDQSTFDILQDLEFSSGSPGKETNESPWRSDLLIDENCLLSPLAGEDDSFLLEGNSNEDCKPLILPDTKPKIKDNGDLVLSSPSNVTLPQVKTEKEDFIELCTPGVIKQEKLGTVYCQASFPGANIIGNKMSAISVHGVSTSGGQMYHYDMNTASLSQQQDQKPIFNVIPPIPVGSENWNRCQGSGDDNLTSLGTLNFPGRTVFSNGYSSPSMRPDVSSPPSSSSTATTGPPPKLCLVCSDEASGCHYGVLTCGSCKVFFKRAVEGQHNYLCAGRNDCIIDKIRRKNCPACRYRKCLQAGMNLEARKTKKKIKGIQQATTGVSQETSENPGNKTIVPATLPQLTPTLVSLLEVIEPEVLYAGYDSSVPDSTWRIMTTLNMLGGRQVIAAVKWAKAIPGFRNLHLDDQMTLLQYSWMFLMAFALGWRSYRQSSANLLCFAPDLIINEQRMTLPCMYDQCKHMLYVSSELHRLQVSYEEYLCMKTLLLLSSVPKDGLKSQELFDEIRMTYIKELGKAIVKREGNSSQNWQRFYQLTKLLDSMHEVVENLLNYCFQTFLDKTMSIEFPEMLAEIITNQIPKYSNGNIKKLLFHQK
Assay: Glucocorticoid Receptor Binding Assay (Glucocorticoid Receptor Competitor Assay far red kit, fluorescence polarization)
Details: competition with fluorescent GR ligand Fluormone GS Far Red, 3 hours at 22° C., pH 7.4; Ki calculated from IC50 by Cheng-Prusoff
Summary of the method: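 Compounds in serial dilution (from intermediate 4.2% DMSO stock) displace Fluormone GS Far Red from full-length human recombinant GR with stabilizing peptide, pH 7.4, incubated 3 hours at 22° C dark. Polarized fluorescence (610–660 nm) gives IC50 via sigmoidal fit, converted to Ki by Cheng-Prusoff.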

Ki [nM]	SMILES
1.8	COC(=O)c1cnc(Oc2ccc([C@@H](C)[C@@](O)(c3ccc4oc(=O)n(C)c4c3)C(F)(F)F)c(Cl)c2)nc1 (relative stereo) [Example 202, 2-{3-Chloro-4-[3,3,3-trifluoro-2-hydroxy-1-methyl-2-(3-methyl-2-oxo-2,3-dihydro-benzooxazol-5-yl)-propyl]-phenoxy}-pyrimidine-5-carboxylic acid methyl ester]
5.8	C[C@H](c1cc(O)ccc1Cl)[C@@](O)(c1ccc2oc(=O)n(C)c2c1)C(F)(F)F (stereo in doubt) [Example 197, 5-[2-(2-Chloro-5-hydroxy-phenyl)-1-hydroxy-1-trifluoromethyl-propyl]-3-methyl-3H-benzooxazol-2-one]
55.6	C[C@@H](c1cc(-c2ccc(C(=O)O)cc2)ccc1Cl)[C@](O)(c1ccc2c(c1)N(C)C(=O)CO2)C(F)(F)F (relative stereo) [Example 17, 4′-Chloro-3′-[3,3,3-trifluoro-2-hydroxy-1-methyl-2-(4-methyl-3-oxo-3,4-dihydro-2H-benzo[1,4]oxazin-6-yl)-propyl]-biphenyl-4-carboxylic acid]
0.8	C[C@H](c1ccc(Oc2ccc(C(=O)O)c(Cl)n2)cc1Cl)[C@@](O)(c1ccc2oc(=O)n(C)c2c1)C(F)(F)F (relative stereo) [Example 184, 2-Chloro-6-{3-chloro-4-[3,3,3-trifluoro-2-hydroxy-1-methyl-2-(3-methyl-2-oxo-2,3-dihydro-benzooxazol-5-yl)-propyl]-phenoxy}-nicotinic acid]
